# Like-named read-outs stand apart in the source and are kept apart here.
# Assays:
# [1] = tested on: Plasmodium berghei (Pb-Luc) exoerythrocytic-stage parasites; conditions: for normalized signal at concentration 0.000508053 / normalized signal at concentration 0.00152416 / normalized signal at concentration 0.00457247 / normalized signal at concentration 0.0137174 / normalized signal at concentration 0.0411523 / normalized signal at concentration 0.123457 / normalized signal at concentration 0.37037 / normalized signal at concentration 1.11111 / normalized signal at concentration 3.33333 / normalized signal at concentration 10: fraction of control; for IC50: read-out: PbLuc_IC50
# HepG2-A16-CD81EGFP cells = conditions: for IC50: read-out: Tox_IC50, HepG2 cytotoxicity
# [2] = sheet 2nd round, Pb-Luc exoerythrocytic stage, 10-point dose response, top concentration 10
# [3] = second series of columns (replicate)
# [4] = sheet 2nd round, maximal inhibition in dose response
# [5] = first series of dose-response columns
# [6] = sheet 2nd round, Broad compounds, dose response
# [7] = second series of dose-response columns
smiles,measurement,setting,value
CC(C)NC(=O)NCC[C@@H]1CC[C@H](NS(=O)(=O)c2ccc(Oc3ccccc3)cc2)[C@@H](CO)O1 [BRD-K66184091-001-01-6],normalized signal at concentration 0.000508053,[1]; first series of columns,0.909
same,normalized signal at concentration 0.00152416,[1]; first series of columns,1.056
same,normalized signal at concentration 0.00457247,[1]; first series of columns,1.03
same,normalized signal at concentration 0.0137174,[1]; first series of columns,0.8503
same,normalized signal at concentration 0.0411523,[1]; first series of columns,0.8577
same,normalized signal at concentration 0.123457,[1]; first series of columns,0.9757
same,normalized signal at concentration 0.37037,[1]; first series of columns,0.9475
same,normalized signal at concentration 1.11111,[1]; first series of columns,1.003
same,normalized signal at concentration 3.33333,[1]; first series of columns,1.282
same,normalized signal at concentration 10,[1]; first series of columns,1.243
same,IC50,[1]; [2],> 10 µM
same,normalized signal at concentration 0.000508053,[1]; [3],0.9487
same,normalized signal at concentration 0.00152416,[1]; [3],0.9281
same,normalized signal at concentration 0.00457247,[1]; [3],0.7932
same,normalized signal at concentration 0.0137174,[1]; [3],0.7902
same,normalized signal at concentration 0.0411523,[1]; [3],0.9772
same,normalized signal at concentration 0.123457,[1]; [3],0.9341
same,normalized signal at concentration 0.37037,[1]; [3],0.8543
same,normalized signal at concentration 1.11111,[1]; [3],0.8244
same,normalized signal at concentration 3.33333,[1]; [3],0.9837
same,normalized signal at concentration 10,[1]; [3],0.9187
same,PbLuc_max_inhibition (%),[1]; [4],21%
same,IC50,HepG2-A16-CD81EGFP cells; sheet 2nd round,> 10 µM
same,Tox_max_inhibition (%),HepG2-A16-CD81EGFP cells; [4],7%
COc1cccc(S(=O)(=O)N2CCCCN3[C@H](CO)[C@H](c4ccc(C#CCC(C)C)cc4)[C@H]3C2)c1 [BRD-K69197522-001-01-4],normalized signal at concentration 0.000508053,[1]; first series of columns,0.7703
same,normalized signal at concentration 0.00152416,[1]; first series of columns,0.9681
same,normalized signal at concentration 0.00457247,[1]; first series of columns,1.135
same,normalized signal at concentration 0.0137174,[1]; first series of columns,0.9046
same,normalized signal at concentration 0.0411523,[1]; first series of columns,0.9718
same,normalized signal at concentration 0.123457,[1]; first series of columns,0.7468
same,normalized signal at concentration 0.37037,[1]; first series of columns,1.034
same,normalized signal at concentration 1.11111,[1]; first series of columns,0.9136
same,normalized signal at concentration 3.33333,[1]; first series of columns,0.9728
same,normalized signal at concentration 10,[1]; first series of columns,0.6517
same,IC50,[1]; [2],> 10 µM
same,normalized signal at concentration 0.000508053,[1]; [3],0.9237
same,normalized signal at concentration 0.00152416,[1]; [3],0.8984
same,normalized signal at concentration 0.00457247,[1]; [3],1.009
same,normalized signal at concentration 0.0137174,[1]; [3],0.9117
same,normalized signal at concentration 0.0411523,[1]; [3],0.9735
same,normalized signal at concentration 0.123457,[1]; [3],1.068
same,normalized signal at concentration 0.37037,[1]; [3],0.8113
same,normalized signal at concentration 1.11111,[1]; [3],0.8704
same,normalized signal at concentration 3.33333,[1]; [3],1.117
same,normalized signal at concentration 10,[1]; [3],0.6736
same,PbLuc_max_inhibition (%),[1]; [4],35%
same,IC50,HepG2-A16-CD81EGFP cells; sheet 2nd round,> 10 µM
same,Tox_max_inhibition (%),HepG2-A16-CD81EGFP cells; [4],6.65%
O=C(C1CCOCC1)N1C[C@@H]2[C@H](c3ccccc31)[C@H](CO)N2C(=O)Cc1ccccn1 [BRD-K09790760-001-01-0],normalised signal at concentration 0.000508053 (first series),"[1]; concentration 0.000508053, first series",0.7162
same,normalised signal at concentration 0.000508053 (second series),"[1]; concentration 0.000508053, second series",0.9348
same,normalised signal at concentration 0.00152416 (first series),"[1]; concentration 0.00152416, first series",0.8009
same,normalised signal at concentration 0.00152416 (second series),"[1]; concentration 0.00152416, second series",0.7622
same,normalised signal at concentration 0.00457247 (first series),"[1]; concentration 0.00457247, first series",0.9824
same,normalised signal at concentration 0.00457247 (second series),"[1]; concentration 0.00457247, second series",0.8311
same,normalised signal at concentration 0.0137174 (first series),"[1]; concentration 0.0137174, first series",0.8823
same,normalised signal at concentration 0.0137174 (second series),"[1]; concentration 0.0137174, second series",0.8539
same,normalised signal at concentration 0.0411523 (first series),"[1]; concentration 0.0411523, first series",1.052
same,normalised signal at concentration 0.0411523 (second series),"[1]; concentration 0.0411523, second series",0.8968
same,normalised signal at concentration 0.123457 (first series),"[1]; concentration 0.123457, first series",0.7822
same,normalised signal at concentration 0.123457 (second series),"[1]; concentration 0.123457, second series",0.8152
same,normalised signal at concentration 0.37037 (first series),"[1]; concentration 0.37037, first series",0.9579
same,normalised signal at concentration 0.37037 (second series),"[1]; concentration 0.37037, second series",1.035
same,normalised signal at concentration 1.11111 (first series),"[1]; concentration 1.11111, first series",0.8507
same,normalised signal at concentration 1.11111 (second series),"[1]; concentration 1.11111, second series",0.8044
same,normalised signal at concentration 3.33333 (first series),"[1]; concentration 3.33333, first series",0.9897
same,normalised signal at concentration 3.33333 (second series),"[1]; concentration 3.33333, second series",1.088
same,normalised signal at concentration 10 (first series),"[1]; concentration 10, first series of dose columns",0.9272
same,normalised signal at concentration 10 (second series),"[1]; concentration 10, second series of dose columns",0.9177
same,IC50,"[1]; sheet ""2nd round"", Broad compounds, dose response top concentration 10",> 10 µM
same,PbLuc_max_inhibition (%),"[1]; sheet ""2nd round""",28%
same,IC50,"HepG2-A16-CD81EGFP cells; sheet ""2nd round""",> 10 µM
same,Tox_max_inhibition (%),"HepG2-A16-CD81EGFP cells; sheet ""2nd round""",5%
C[C@@H]1CN([C@H](C)CO)C(=O)c2cc(N(C)C)ccc2O[C@@H](C)CCCCO[C@@H]1CN(C)S(=O)(=O)c1ccc(F)cc1 [BRD-K12341671-001-01-5],normalized signal at concentration 10,[1]; [5],0.50
same,normalized signal at concentration 0.000508053,[1]; first series,0.77
same,normalized signal at concentration 0.00152416,[1]; first series,1.03
same,normalized signal at concentration 0.00457247,[1]; first series,1.06
same,normalized signal at concentration 0.0137174,[1]; first series,0.89
same,normalized signal at concentration 0.0411523,[1]; first series,0.99
same,normalized signal at concentration 0.123457,[1]; first series,1.04
same,normalized signal at concentration 0.37037,[1]; first series,0.93
same,normalized signal at concentration 1.11111,[1]; first series,0.88
same,normalized signal at concentration 3.33333,[1]; first series,0.70
same,IC50,[1]; [6],> 10 µM
same,normalized signal at concentration 10,[1]; [7],0.50
same,normalized signal at concentration 0.000508053,[1]; second series,0.88
same,normalized signal at concentration 0.00152416,[1]; second series,1.15
same,normalized signal at concentration 0.00457247,[1]; second series,0.85
same,normalized signal at concentration 0.0137174,[1]; second series,0.84
same,normalized signal at concentration 0.0411523,[1]; second series,0.98
same,normalized signal at concentration 0.123457,[1]; second series,0.98
same,normalized signal at concentration 0.37037,[1]; second series,0.92
same,normalized signal at concentration 1.11111,[1]; second series,0.85
same,normalized signal at concentration 3.33333,[1]; second series,0.80
same,PbLuc_max_inhibition (%),[1]; [4],50%
same,IC50,HepG2-A16-CD81EGFP cells; sheet 2nd round,> 10 µM
same,Tox_max_inhibition (%),HepG2-A16-CD81EGFP cells; [4],5%
CC(C)[C@H]1COCn2nncc2CCCC(=O)N1 [BRD-K14350179-001-01-1],normalized signal at concentration 10,[1]; [5],0.98
same,normalized signal at concentration 0.000508053,[1]; first series,0.82
same,normalized signal at concentration 0.00152416,[1]; first series,0.73
same,normalized signal at concentration 0.00457247,[1]; first series,0.94
same,normalized signal at concentration 0.0137174,[1]; first series,0.81
same,normalized signal at concentration 0.0411523,[1]; first series,0.80
same,normalized signal at concentration 0.123457,[1]; first series,0.97
same,normalized signal at concentration 0.37037,[1]; first series,0.84
same,normalized signal at concentration 1.11111,[1]; first series,0.77
same,normalized signal at concentration 3.33333,[1]; first series,0.76
same,IC50,[1]; [6],> 10 µM
same,normalized signal at concentration 10,[1]; [7],1.05
same,normalized signal at concentration 0.000508053,[1]; second series,0.94
same,normalized signal at concentration 0.00152416,[1]; second series,1.04
same,normalized signal at concentration 0.00457247,[1]; second series,1.06
same,normalized signal at concentration 0.0137174,[1]; second series,0.87
same,normalized signal at concentration 0.0411523,[1]; second series,1.07
same,normalized signal at concentration 0.123457,[1]; second series,1.10
same,normalized signal at concentration 0.37037,[1]; second series,1.01
same,normalized signal at concentration 1.11111,[1]; second series,0.86
same,normalized signal at concentration 3.33333,[1]; second series,0.89
same,PbLuc_max_inhibition (%),[1]; [4],27%
same,IC50,HepG2-A16-CD81EGFP cells; sheet 2nd round,> 10 µM
same,Tox_max_inhibition (%),HepG2-A16-CD81EGFP cells; [4],5.35%
C[C@H]1CN([C@@H](C)CO)C(=O)c2cccc(NC(=O)NC3CCCCC3)c2O[C@H]1CN(C)Cc1ccc(C(F)(F)F)cc1 [BRD-K56432748-001-01-8],IC50,HepG2-A16-CD81EGFP cells; sheet 2nd round,> 10 µM
same,Tox_max_inhibition (%),HepG2-A16-CD81EGFP cells; [4],10%
O=C(Nc1ccccc1F)N1CCCCN2[C@H](CO)[C@@H](c3ccc(/C=C/c4ccccc4)cc3)[C@@H]2C1 [BRD-K50964970-001-01-5],IC50,"HepG2-A16-CD81EGFP cells; sheet ""2nd round""",> 10 µM
same,Tox_max_inhibition (%),"HepG2-A16-CD81EGFP cells; sheet ""2nd round""",8%

# — publication PMC4890880 (ACS infectious diseases, 2016)
